# Assay results published in the METLIN SMRT retention time set (Domingo-Almenara et al. 2019).
# Assay: gradient 5% acetonitrile 3 min, to 50% in 2 min, to 85% in 15 min, held 3 min, 100 µL/min
# Settings: column: Zorbax Extend-C18 2.1 x 50 mm; eluents: water / acetonitrile, 0.1% formic acid
# In short: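 Mixtures of ~100 pure standards were chromatographed on a Zorbax Extend-C18 column (2.1 × 50 mm, 1.8 μm) at 100 μL/min using water and acetonitrile, each with 0.1% formic acid. Detection used a quadrupole time-of-flight mass spectrometer in positive and negative ionization mode, and data collection spanned 3 months. Retention time was obtained from adduct peaks picked computationally and each checked manually.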
row,SMILES,RP-LC retention time [s]
1,COc1ccc(OC)c(NC(=O)CN2C(=O)CCc3cc(Br)ccc32)c1,962
2,COc1cccc(-c2ccc(=O)n(Cc3nc(-c4ccc(OC(C)C)cc4)no3)n2)c1,1140
3,O=C(c1cccc(Br)c1)N1CCc2nc(-c3ccccc3)ncc2C1,1020
4,CCCCN1C(=O)C(C)(C(=O)NCc2ccc(F)cc2)Oc2cccnc21 (configuration not stated),984
5,CC(C)(NS(=O)(=O)c1ccc(Oc2ccc(F)cc2)cc1)C(=O)NO,804
6,CCOc1ccc(S(=O)(=O)N2CCCC(C(=O)NCC3CCCO3)C2)cc1 (configuration not stated),788
7,Cc1ccc(CN2CC(c3nc(CCOCc4ccccc4)no3)C2)s1,716
8,CC(C)(C)NC(=O)Cc1cccn1-c1cccc(Cl)c1,1010
9,COc1ccc(OC)c(NC(=O)Cn2c(-c3ccc(Cl)cc3)nc(C)cc2=O)c1,1220
10,CCOC(=O)c1cc(S(=O)(=O)N2CCCC2C(=O)Nc2ccccc2)cn1C (configuration not stated),903
11,O=C(C1CCCO1)N1CCCN(Cc2nc(-c3ccc(Cl)cc3)no2)CC1 (configuration not stated),706
12,CCc1nnc(-c2cccs2)o1,731
13,CCCN1CCN(C(=O)C(C)C2CCN(C(=O)c3[nH]c(C)c(C(=O)OCC)c3C)CC2)CC1 (configuration not stated),620
14,CC(C)CCN1CCC(N(C(=O)NCCc2ccccc2)C2CCOCC2)CC1,700
15,O=C(C1CCOCC1)N1CCC(c2noc(-c3ccccn3)n2)C1 (configuration not stated),599
16,O=C(N[C@@H]1CN(C2CCOCC2)C[C@H]1CO)c1ccc2c(c1)OCO2,566

row,SMILES,RP-LC retention time [s]
1,Cc1ccc(-c2c(N3CCN(c4ccccn4)CC3)c(=O)c2=O)cc1C,708
2,COc1ccc(CNC(=O)Cc2nnc(-c3ccccn3)o2)c(OC)c1,696
3,CCCNC(=O)C1CCN(c2cc(SCC(=O)Nc3ccc(OC)cc3)ncn2)CC1,692
4,Cc1sc2ccn(C)c(=O)c2c1C(=O)NCc1ccccc1Br,834
5,Brc1ccc(CN2CCc3nc(N4CCN(c5ccccn5)CC4)ncc3C2)cc1,574
6,O=S(=O)(c1ccc(F)cc1)N1CCC(OCCOCc2ccccc2)CC1,1060
7,Cc1c(C(=O)NCc2ccco2)nnn1-c1ccc(Br)cc1,844
8,Cc1ccc(NC(=O)CSc2cc(N3CCCC(C)C3)ncn2)c(C)c1 (configuration not stated),1100
9,CCNC(=O)Nc1ccc(N2CCCCC2)nc1,561
10,Cc1ccc2oc(-c3noc(C(=O)NCc4ccc(C)o4)n3)c(C)c2c1,1080
11,CCOC(=O)CC1(NC(=O)N2CCCn3nc(-c4cccnc4)cc3C2)CCCCC1,643
12,COc1ccccc1NC(=O)N1CC(C)Oc2ccc(C)cc21 (configuration not stated),1130
13,COC(=O)c1ncn2c1C(=O)N(c1ccc(C)c(C)c1)C(C)(C(=O)NCc1ccccc1)C2 (configuration not stated),735
14,CCNC(=O)c1cc(-c2ccccc2)n[nH]1,668
15,O=C(N1CCc2ccccc2C1)C1(c2ccc(F)cc2)CC1,905
16,CC1CN(c2ccc(Br)cc2)c2nc3c(c(=O)n(CC(=O)O)c(=O)n3C)n2C1 (configuration not stated),829

# Results, then the compound that gave them:
row,RP-LC retention time [s],SMILES
1,970,CC1(c2ccc3ccccc3c2)CCC(=O)O1 (configuration not stated)
2,766,Cc1ccc(CNC(=O)C2(C)CCCN(C(=O)NC(C)C)C2)cc1 (configuration not stated)
3,842,COc1ccc(C2(CNS(=O)(=O)c3ccc(OC)c(Cl)c3)CCOCC2)cc1
4,707,CCCC(=O)Nc1ccc2c(c1)CN(C(=O)c1ccccc1Cl)C(C(=O)N(C)C)C2 (configuration not stated)
5,1100,Cc1cc2nn(CC(=O)Nc3cccc(Cl)c3)c(=O)n2c(Nc2ccccc2C)n1
6,1100,CC1CCCCN1S(=O)(=O)c1ccc2nc(N3CCN(c4ccccc4)CC3)ccc2c1 (configuration not stated)
7,728,Cc1cc(F)ccc1NS(=O)(=O)c1cc(-c2[nH]ncc2C(=O)N2CCCC2)oc1C
8,614,Cc1cc(N2CCN(C)CC2)nc2ccc(NC(=O)NCCc3ccccc3)cc12
9,752,COc1cccc(-c2noc(NC3CC3)n2)c1OC
10,767,CCC(C)(C)C(=O)N1CCCC(c2nc(CCNC(=O)C3CC3)cs2)C1 (configuration not stated)
11,1130,CCOc1ccc(Cc2nc(-c3ccc4oc(CC)nc4c3)no2)cc1
12,661,COc1ccc(C)cc1S(=O)(=O)Nc1ccc(-c2cn3ccc(C)nc3n2)cc1
13,986,O=S1(=O)C[C@H](N2CCN(c3ccccc3F)CC2)[C@@H](S(=O)(=O)c2ccc(Cl)cc2)C1
14,862,CC1=C(c2ccccc2)S(=O)(=O)N=C1N1CCCN(C(=O)c2cccc(Cl)c2)CC1
15,840,COc1ccc(C(=O)NCc2ccccc2OC(F)(F)F)nn1
16,612,Cc1ccc(S(=O)(=O)N2C(=O)CCC2C(=O)N2CCN(c3ccccn3)CC2)cc1 (configuration not stated)
17,584,O=C(Cc1ccccc1Cl)N1CCc2nc[nH]c2C1
18,741,CC(C)C(NC(=O)c1ccco1)c1nc(-c2ccc3c(c2)ncn3C2CCCC2)no1 (configuration not stated)

row,RP-LC retention time [s],SMILES
1,903,CC(C)n1nccc1-c1nnc(NC(=O)C(C)(C)Oc2ccc(Cl)cc2)o1
2,843,CC(C)n1c(N2CCCN(C(=O)COc3ccccc3)CC2)cc(=O)n(C(C)C)c1=O
3,870,CCN1C(=O)c2cccnc2Sc2cc(NC(=O)c3cccc(C)c3)ccc21
4,575,COCC1CN(S(=O)(=O)Cc2ccccc2F)CC12CCNCC2 (configuration not stated)
5,792,COC(=O)c1ncn2c1C(=O)N(Cc1ccccc1C)C(C)(C(=O)NC1CCCCC1)C2 (configuration not stated)
6,684,Cc1cc(NC(=O)CN2C(=O)CCc3cc(Br)ccc32)c2ccccc2n1
7,654,CC1(C)CCC(NC(=O)[C@@H](N)CCC(=O)O)CC1
8,790,O=C(COc1cccc2c1CCN(Cc1ccccc1F)C2=O)NCc1ccco1
9,620,Cc1nn(CC(=O)N2CCN(C(C)C)CC2)c(=O)c2nc(-c3ccccc3)sc12
10,986,CCN1C(=O)c2cc(S(=O)(=O)NCc3ccccc3)ccc2Oc2cccnc21
11,734,Cc1ccc(NC(=O)C2CCN(c3cc(N4CCSCC4)ncn3)CC2)cc1F
12,594,O=C(NCc1ccncc1)C1CN(S(=O)(=O)c2ccccc2)CC12CCCCC2 (configuration not stated)
13,643,Cc1oc2c(c1C(=O)Nc1ccc(F)c(F)c1)C1=NCCN1C=N2
14,853,COc1ccc(-c2noc(-c3cccn(CC(=O)Nc4cccc(SC)c4)c3=O)n2)cc1OC
15,729,Cc1nnc(-c2c(S(=O)(=O)NCc3ccco3)c(C)n(C)c2C)o1
16,834,COc1ccc(CCC(=O)Nc2c(C(=O)N3CCN(c4ccccn4)CC3)oc3ccccc23)cc1
17,670,COc1ccc(-c2noc(CN3CCC(C(=O)NC4CCCCC4)CC3)n2)cc1OC
